From US20250282799A1, “SUBSTITUTED PYRIDO[4,3-d]PYRIMIDINES AS KRAS MODULATORS” (Alterome Therapeutics, Inc., priority 2023, published 2025)

The compounds below were run on KRAS G12V dependent lung adenocarcinoma cell line, NCI-H441 (assay: Cellular pERK (Thr202/Tyr204) FRET/HTRF assay). Settings: Homo sapiens, NCI-H441, cellular pERK (Thr202/Tyr204) HTRF, NCI-H441 cells.
Format: cell-based
Source text: “Ras” refers to a protein in the Ras superfamily of small GTPases, such as in the Ras subfamily. […] The Ras proteins play a critical role in the regulation of cell behaviors, including proliferation, differentiation, and survival. […] KRAS G12V, G12D, and G12S variants are common in human cancers and Ras inhibitors binding in or near the Switch II pocket may provide mutant binding selectivity. RAS mutations are known to be often associated with pancreatic, colorectal and non-small-cell lung carcinomas (Lone, A. M. et al. J. Am. Chem. Soc. 2011,133, 11665-74, which is entirely incorporated herein by reference; Dillon, M. B.; Bachovchin, D. A.; Brown, S. J.; Finn, M. G.; Rosen, H.; Cravatt, B. F.; Mowen, K. A. ACS Chem. Biol. 2012, 7, 1198-204, which is entirely incorporated herein by reference; Bachovchin, D. A.; Brown, S. J.; Rosen, H.; Cravatt, B. F. Nat. Biotechnol. 2009, 27, 387-94, Ostrem, J. M.; Peters, U.; Sos, M. L.; Wells, J. A.; Shokat, K. M. Nature 2013, 503, 548-551. Ryan M. B. and Corcoran R. B, Nat. Rev Clin Onco. 2018, 11, 709-720.). Ras proteins are key members in the Ras/Raf/Mitogen-activated protein kinase (MAPK) signaling pathway. This pathway regulates a wide variety of cellular processes, including proliferation, differentiation, apoptosis, and stress responses. One way to measure the impact of an inhibitor of Ras proteins is to measure downstream phosphorylation of proteins in the MAPK pathway. The MAPK pathway includes extracellular signal-regulated kinases named ERK1 and ERK2, which are serine-threonine kinases that regulate cellular signaling under both normal and oncogenic conditions. ERK expression and hyperactivation via phosphorylation plays a major role in cancer progression and are downstream of Ras proteins. The assay used for measuring the downstream impact of Ras inhibition is the use of a highly sensitive cell-based readout of ERK phosphorylation (pERK) specifically on Threonine (Thr) 202 and Tyrosine (Tyr) 204 in a KRAS G12V dependent lung adenocarcinoma cell line, NCI-H441 (ATCC Cat #HTB-174). The assay described herein is suitable for assessing inhibition of Ras and can be tailored for any of the predominant oncogenic mutations in any isoform of Ras (e.g., KRAS, HRAS, and NRAS) by changing the cell line.
pERK was measured using an advanced pERK assay designed for the robust and highly sensitive quantification of ERK phosphorylation on Thr202/Tyr204. This assay is intended for the simple, rapid, and direct detection of endogenous levels of ERK1/2 in cells, but only when ERK is phosphorylated at Thr202 and Tyr204 (Perkin Elmer Catalog #64AERPEH). pERK was detected in a FRET based sandwich assay format using 2 different specific antibodies, one labelled with Eu3+-Cryptate (donor) and the second with d2 (acceptor). When the dyes are in close proximity, the excitation of the donor with a light source (laser or flash lamp) triggers a Fluorescence Resonance Energy Transfer (FRET) towards the acceptor, which in turn fluoresces at a specific wavelength (665 nm). The specific signal modulates positively in proportion to p-ERK1/2 (Thr202/Tyr204). The simple mix-and-read protocol eliminates all wash steps for faster analysis and high-quality output. Briefly, cells were diluted to the desired concentration per well based on a growth curve showing ˜75% confluence within a 24-hour time period at no less than 95% viability. Cell suspension (24 μL) were added into each well of 384-well culture plate and maintained in 37° C. 5% CO2 incubator overnight prior to assay. All compounds were transferred to stock plates using TECAN (EVO200) liquid handler using DMSO as the solubilizing and dilution agent. Test compounds were transferred onto adherent cells using an Echo655 liquid handler. DMSO was employed as negative control. Cells were incubated with test compounds for 1 hr in a 37° C., 5% CO2 incubator following compound addition. […]

IC50 [nM] | Compound
< 50 | [2H]C([2H])(F)Oc1c(F)ccc2cc(N)cc(-c3ncc4c(N5CCCC[C@H]6[C@H](F)[C@H]65)nc(OC[C@]56C/C(=C/F)CN5CCC65CC5)nc4c3F)c12 [Example 409, 6-fluoro-4-(8-fluoro-4-((1S,7R,8S)-8-fluoro-2-azabicyclo[5.1.0]octan-2-yl)-2-(((R,Z)-6′-(fluoromethylene)tetrahydrospiro [cyclopropane-1,1′-pyrrolizin]-7a′(5′H)-yl)methoxy)pyrido[4,3-d]pyrimidin-7-yl)-5-(fluoromethoxy-d2)naphthalen-2-amine]
< 50 | C=C1CN2CCC[C@@]2(COc2nc(N3CCCC[C@H]4[C@H](F)[C@H]43)c3cnc(-c4cc(N)cc(Cl)c4C(F)(F)F)c(F)c3n2)C1 [Example 367, 3-chloro-5-(8-fluoro-4-((1S,7R,8S)-8-fluoro-2-azabicyclo[5.1.0]octan-2-yl)-2-(((S)-2-methylenetetrahydro-1H-pyrrolizin-7a(5H)-yl)methoxy)pyrido[4,3-d]pyrimidin-7-yl)-4-(trifluoromethyl)aniline]
< 50 | C#Cc1c(F)ccc2cc(N)cc(-c3ncc4c(N5CCOC[C@H]6[C@H](F)[C@H]65)nc(OC[C@]56C[C@@H](F)CN5CCC6=C)nc4c3F)c12 [Example 364, 5-ethynyl-6-fluoro-4-(8-fluoro-2-(((6R,7aR)-6-fluoro-1-methylenetetrahydro-1H-pyrrolizin-7a(5H)-yl)methoxy)-4-((1S,7S,8S)-8-fluoro-5-oxa-2-azabicyclo[5.1.0]octan-2-yl)pyrido[4,3-d]pyrimidin-7-yl)naphthalen-2-amine]
50 to 500 | C#Cc1c(F)ccc2cc(O)cc(-c3ncc4c(N5CCCO[C@@H]6C[C@@H]65)nc(OC[C@H]5CCCN5C)nc4c3F)c12 [Example 280, 4-(4-((1R,7S)-2-oxa-6-azabicyclo[5.1.0]octan-6-yl)-8-fluoro-2-(((R)-1-methylpyrrolidin-2-yl)methoxy)pyrido[4,3-d]pyrimidin-7-yl)-5-ethynyl-6-fluoronaphthalen-2-ol]
< 50 | [2H]C([2H])(Oc1nc(N2CCOC[C@H]3[C@H](F)[C@H]32)c2cnc(-c3cc(N)cc4ccc(F)c(C#C)c34)c(F)c2n1)[C@@]12CCCN1[C@@H](C)[C@H](F)C2 [Example 334, 5-ethynyl-6-fluoro-4-(8-fluoro-2-(((2R,3S,7aS)-2-fluoro-3-methyltetrahydro-1H-pyrrolizin-7a(5H)-yl)methoxy-d2)-4-((1S,7S,8S)-8-fluoro-5-oxa-2-azabicyclo[5.1.0]octan-2-yl)pyrido[4,3-d]pyrimidin-7-yl)naphthalen-2-amine]
500 to 10000 | [2H]C([2H])(Oc1nc(N2CCOC[C@H]3[C@H](F)[C@H]32)c2cc(C(F)(F)F)c(-c3cccc4ccccc34)c(F)c2n1)[C@@]12CCCN1C[C@H](F)C2 [Example 415, (1S,7S,8S)-8-fluoro-2-(8-fluoro-2-(((2R,7aS)-2-fluorotetrahydro-1H-pyrrolizin-7a(5H)-yl)methoxy-d2)-7-(naphthalen-1-yl)-6-(trifluoromethyl)quinazolin-4-yl)-5-oxa-2-azabicyclo[5.1.0]octane]
50 to 500 | [2H]C([2H])(Oc1nc(N2CC[C@H](C#N)C[C@@H]3[C@@H](F)[C@@H]32)c2cnc(-c3cc(N)cc4ccc(F)c(C#C)c34)c(F)c2n1)[C@@]12CCCN1C[C@H](F)C2 [Example 307, (1R,5R,7S,8R)-2-(7-(3-amino-8-ethynyl-7-fluoronaphthalen-1-yl)-8-fluoro-2-(((2R,7aS)-2-fluorotetrahydro-1H-pyrrolizin-7a(5H)-yl)methoxy-d2)pyrido[4,3-d]pyrimidin-4-yl)-8-fluoro-2-azabicyclo[5.1.0]octane-5-carbonitrile]
< 50 | C#Cc1c(F)ccc2cccc(-c3ncc4c(N5CCOC[C@H]6[C@H](F)[C@H]65)nc(OC[C@]56C/C(=C\F)CN5CCC65CC5)nc4c3F)c12 [Example 375, (1S,7S,8S)-2-(7-(8-Ethynyl-7-fluoronaphthalen-1-yl)-8-fluoro-2-(((R,E)-6′-(fluoromethylene)tetrahydrospiro[cyclopropane-1,1′-pyrrolizin]-7a′(5′H)-yl)methoxy)pyrido[4,3-d]pyrimidin-4-yl)-8-fluoro-5-oxa-2-azabicyclo[5.1.0]octane]

The remaining lines, values behind:

Compound | IC50 [nM]
C=C1CN2CCC3(CC3)[C@@]2(COc2nc(N3CCOC[C@H]4[C@H](F)[C@H]43)c3cnc(-c4cc(N)c(F)c(C)c4C(F)(F)F)c(F)c3n2)C1 [Example 226, 2-fluoro-5-(8-fluoro-4-((1S,7S,8S)-8-fluoro-5-oxa-2-azabicyclo[5.1.0]octan-2-yl)-2-(((R)-6′-methylenetetrahydrospiro[cyclopropane-1,1′-pyrrolizin]-7a′(5′H)-yl)methoxy)pyrido[4,3-d]pyrimidin-7-yl)-3-methyl-4-(trifluoromethyl)aniline] | < 50
[2H]C([2H])(Oc1nc(N2CCCC[C@H]3[C@H](F)[C@H]32)c2cnc(-c3cccc4c(F)cc(F)c(C#C)c34)c(F)c2n1)[C@@]12CCCN1C[C@H](F)C2 [Example 112, 7-(8-ethynyl-5,7-difluoronaphthalen-1-yl)-8-fluoro-4-((1S,7R,8S)-8-fluoro-2-azabicyclo[5.1.0]octan-2-yl)-2-(((2R,7aS)-2-fluorotetrahydro-1H-pyrrolizin-7a(5H)-yl)methoxy-d2)pyrido[4,3-d]pyrimidine] | 50 to 500
[2H]C([2H])(Oc1nc(N2CCC(=O)C[C@H]3[C@H](F)[C@H]32)c2cnc(-c3cc(N)cc4cc(F)c(F)c(C#C)c34)c(F)c2n1)[C@@]12CCCN1C[C@H](F)C2 [Example 195, (1S,7R,8S)-2-(7-(3-amino-8-ethynyl-6,7-difluoronaphthalen-1-yl)-8-fluoro-2-(((2R,7aS)-2-fluorotetrahydro-1H-pyrrolizin-7a(5H)-yl)methoxy-d2)pyrido[4,3-d]pyrimidin-4-yl)-8-fluoro-2-azabicyclo[5.1.0]octan-5-one] | < 50
[2H]C([2H])(Oc1nc(N2CCCC[C@H]3[C@H](F)[C@H]32)c2cnc(-c3nc(N)cc4ccc(F)c(Cl)c34)c(F)c2n1)[C@@]12CCCN1C[C@H](F)C2 [Example 153, 8-chloro-7-fluoro-1-(8-fluoro-4-((1S,7R,8S)-8-fluoro-2-azabicyclo[5.1.0]octan-2-yl)-2-(((2R,7aS)-2-fluorotetrahydro-1H-pyrrolizin-7a(5H)-yl)methoxy-d2)pyrido[4,3-d]pyrimidin-7-yl)isoquinolin-3-amine] | 50 to 500

Same assay, conditions: Homo sapiens, NCI-H441, pERK HTRF, NCI-H441 cells (KRAS G12V)

Compound | IC50 [nM]
[2H]C([2H])(Oc1nc(N2CCC[C@@H]3[C@@H](F)[C@@H]32)c2cnc(-c3cc(N)cc4cc(F)c(F)c(C#C)c34)c(F)c2n1)[C@@]12CCCN1C[C@H](F)C2 [Example 53, 5-Ethynyl-6,7-difluoro-4-(8-fluoro-4-((1R,6S,7R)-7-fluoro-2-azabicyclo[4.1.0]heptan-2-yl)-2-(((2R,7aS)-2-fluorotetrahydro-1H-pyrrolizin-7a(5H)-yl)methoxy-d2)pyrido[4,3-d]pyrimidin-7-yl)naphthalen-2-amine] | 50 to 500
[2H]C([2H])(Oc1nc(N2CCCO[C@@H]3C[C@@H]32)c2cnc(-c3cc(O)cc4ccc(F)c(C#C)c34)c(F)c2n1)[C@@]12CCCN1C[C@H](F)C2 [Example 11, 4-(4-((1R,7S)-2-Oxa-6-azabicyclo[5.1.0]octan-6-yl)-8-fluoro-2-(((2R,7aS)-2-fluorotetrahydro-1H-pyrrolizin-7a(5H)-yl)methoxy-d2)pyrido[4,3-d]pyrimidin-7-yl)-5-ethynyl-6-fluoronaphthalen-2-ol] | 50 to 500
